The text below walks through data of PubChem BioAssay AID248 (DTP/NCI, 2004).

Where “and” joins values, the source holds several entries; their conditions need not be identical. Identical values can stand only once. Toxic doses and inconclusive results are not listed. Numbered stars: 1 amine (or outer) side, 2 acyl side, 3 side chain; on linkers, the order of the positions; unused ones are H or OH. Bridge positions count the residues as written; N and C are the ends. Square brackets hold non-standard residues; d marks the D form. Peptide text beside a SMILES is read from it. I, II: the chains in the order shown. Actinocin(1to9) = Cc1c2oc3c(C)ccc(C(=O)[*:2])c3nc-2c(C(=O)[*:1])c(N)c1=O; NMeV = CN[CH](C(=O)O)C(C)C; Sar = CNCC(=O)O

For the assay, the system named is L1210 leukemia ip in BDF1 mice, survival T/C. As to the kind of experiment: NCI In Vivo Anticancer Drug Screen. Data for tumor model L1210 Leukemia (intraperitoneal) in B6D2F1 (BDF1) mice. The conditions noted are these: higher = longer survival. Summed up:
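Antitumor effect is assessed in tumor-bearing animals. Survival in the compound arm is compared with a vehicle-dosed control arm and expressed as their quotient.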

Where [1] appears, read: endpoint: mean survival time, dose: 100.0 mg/kg/injection, schedule: Q01DX001 (ip), vehicle: Klucel (hydroxypropylcellulose) (HPC).
Where [2] appears, read: endpoint: mean survival time, dose: 200.0 mg/kg/injection, schedule: Q01DX001 (ip), vehicle: Klucel (hydroxypropylcellulose) (HPC).
Setting [3] is: endpoint: mean survival time, dose: 400.0 mg/kg/injection, schedule: Q01DX001 (ip), vehicle: Klucel (hydroxypropylcellulose) (HPC).
[4] abbreviates: endpoint: mean survival time, dose: 100.0 mg/kg/injection, schedule: Q04DX003 (ip), vehicle: Klucel (hydroxypropylcellulose) (HPC).
Setting [5] is: endpoint: mean survival time, dose: 200.0 mg/kg/injection, schedule: Q04DX003 (ip), vehicle: Klucel (hydroxypropylcellulose) (HPC).
Where [6] appears, read: endpoint: mean survival time, dose: 400.0 mg/kg/injection, schedule: Q04DX003 (ip), vehicle: Klucel (hydroxypropylcellulose) (HPC).
[7] abbreviates: endpoint: mean survival time, dose: 100.0 mg/kg/injection, schedule: Q01DX009 (ip), vehicle: Klucel (hydroxypropylcellulose) (HPC).
The mark [8] stands for this setting: endpoint: mean survival time, dose: 200.0 mg/kg/injection, schedule: Q01DX009 (ip), vehicle: Klucel (hydroxypropylcellulose) (HPC).
Where [9] appears, read: endpoint: mean survival time, dose: 400.0 mg/kg/injection, schedule: Q01DX009 (ip), vehicle: Klucel (hydroxypropylcellulose) (HPC).
Where [10] appears, read: endpoint: mean survival time, dose: 100.0 mg/kg/injection, schedule: Q04DX002 (ip), vehicle: Klucel (hydroxypropylcellulose) (HPC).
Setting [11] is: endpoint: mean survival time, dose: 200.0 mg/kg/injection, schedule: Q04DX002 (ip), vehicle: Klucel (hydroxypropylcellulose) (HPC).
Setting [12] is: endpoint: mean survival time, dose: 400.0 mg/kg/injection, schedule: Q04DX002 (ip), vehicle: Klucel (hydroxypropylcellulose) (HPC).
The mark [13] stands for this setting: endpoint: mean survival time, dose: 100.0 mg/kg/injection, schedule: Q04DX003 (ip), vehicle: saline with Tween-80.
The mark [14] stands for this setting: endpoint: mean survival time, dose: 200.0 mg/kg/injection, schedule: Q04DX003 (ip), vehicle: saline with Tween-80.
Setting [15] is: endpoint: mean survival time, dose: 400.0 mg/kg/injection, schedule: Q04DX003 (ip), vehicle: saline with Tween-80.

In the case of `CCOC(=O)c1[nH]c2c(OCC)nc(OCC)nc2c1Br`, the T/C is, setting by setting: (endpoint: mean survival time, dose: 50.0 mg/kg/injection, schedule: Q01DX001 (ip), vehicle: saline) 106 % of control; (endpoint: mean survival time, dose: 100.0 mg/kg/injection, schedule: Q01DX001 (ip), vehicle: saline) 112 % of control; (endpoint: mean survival time, dose: 200.0 mg/kg/injection, schedule: Q01DX001 (ip), vehicle: saline) 104 % of control; (endpoint: mean survival time, dose: 400.0 mg/kg/injection, schedule: Q01DX001 (ip), vehicle: saline) 95 % of control.
`Oc1ccc2ccccc2c1C(c1ccccc1)N1CCCCC1` (stereo not given): the T/C reads like this: under setting [1], 94 % of control; under setting [2], 97 % of control; under setting [3], 103 % of control.
As for `CCC(C)C1NC(=O)C(NC(=O)c2c3nc4c(C(=O)NC5C(=O)NC(C(C)CC)C(=O)N6CCCC6C(=O)N(C)CC(=O)N(C)C(C(C)C)C(=O)OC5C)ccc(C)c4oc-3c(C)c(=O)c2N)C(C)OC(=O)C(C(C)C)N(C)C(=O)CN(C)C(=O)C2CCCN2C1=O` (stereo not given) (I: TIP[Sar][NMeV] / II: TIP[Sar][NMeV]; ester I:1-I:C, II:1-II:C; linker I:N-II:N via Actinocin(1to9); configuration not given here), the T/C was 170 % of control (endpoint: mean survival time, dose: 0.1 mg/kg/injection, schedule: Q01DX009 (ip), vehicle: saline); 86 % of control (endpoint: mean survival time, dose: 0.4 mg/kg/injection, schedule: Q01DX009 (ip), vehicle: saline); 115 % of control (endpoint: mean survival time, dose: 2.5 micrograms/kg/injection, schedule: Q01DX009 (ip), vehicle: saline); 106 % of control (endpoint: mean survival time, dose: 3.1 micrograms/kg/injection, schedule: Q01DX001 (ip), vehicle: saline); 122 % of control (endpoint: mean survival time, dose: 6.0 micrograms/kg/injection, schedule: Q01DX009 (ip), vehicle: saline); 102 % of control (endpoint: mean survival time, dose: 6.3 micrograms/kg/injection, schedule: Q01DX001 (ip), vehicle: saline). Further, the T/C by setting is: (endpoint: mean survival time, dose: 10.0 micrograms/kg/injection, schedule: Q01DX009 (ip), vehicle: saline) 118 % of control; (endpoint: mean survival time, dose: 12.5 micrograms/kg/injection, schedule: Q01DX001 (ip), vehicle: saline) 102 % of control; (endpoint: mean survival time, dose: 12.5 micrograms/kg/injection, schedule: Q01DX009 (ip), vehicle: saline) 122 % of control; (endpoint: mean survival time, dose: 25.0 micrograms/kg/injection, schedule: Q01DX001 (ip), vehicle: saline) 114 % of control; (endpoint: mean survival time, dose: 50.0 micrograms/kg/injection, schedule: Q01DX001 (ip), vehicle: saline) 102 % of control; (endpoint: mean survival time, dose: 50.0 micrograms/kg/injection, schedule: Q01DX009 (ip), vehicle: saline) 150 % of control. Besides, the T/C (endpoint: mean survival time, dose: 59.4 micrograms/kg/injection, schedule: Q01DX009 (ip), vehicle: acetone) is 160 % of control; the T/C (endpoint: mean survival time, dose: 90.0 micrograms/kg/injection, schedule: Q01DX009 (ip), vehicle: acetone) is 102 % of control; the T/C (endpoint: mean survival time, dose: 100.0 micrograms/kg/injection, schedule: Q01DX001 (ip), vehicle: saline) is 111 % of control; the T/C (endpoint: mean survival time, dose: 135.0 micrograms/kg/injection, schedule: Q01DX009 (ip), vehicle: acetone) is 104 % of control; the T/C (endpoint: mean survival time, dose: 200.0 micrograms/kg/injection, schedule: Q01DX001 (ip), vehicle: saline) is 117 % of control; the T/C (endpoint: median survival time, dose: 12.5 micrograms/kg/injection, schedule: Q01DX009 (ip), vehicle: water) was 113 % of control. The T/C is 117 % of control (endpoint: median survival time, dose: 25.0 micrograms/kg/injection, schedule: Q01DX009 (ip), vehicle: water); 122 % of control (endpoint: median survival time, dose: 75.0 micrograms/kg/injection, schedule: Q04DX003 (ip), vehicle: water); 118 % of control (endpoint: median survival time, dose: 200.0 micrograms/kg/injection, schedule: Q01DX001 (ip), vehicle: water); 150 % of control (endpoint: median survival time, dose: 600.0 micrograms/kg/injection, schedule: Q04DX003 (ip), vehicle: water).
With `CC(N)c1ccc(OCCOc2ccc(C(C)(C)CC(C)(C)C)cc2)cc1` (stereo not given), the T/C (endpoint: mean survival time, dose: 6.25 mg/kg/injection, schedule: Q01DX009 (ip), vehicle: Klucel (hydroxypropylcellulose) (HPC)) is 93 % of control; the T/C (endpoint: mean survival time, dose: 12.5 mg/kg/injection, schedule: Q01DX009 (ip), vehicle: Klucel (hydroxypropylcellulose) (HPC)) was 94 % of control; the T/C (endpoint: mean survival time, dose: 25.0 mg/kg/injection, schedule: Q01DX009 (ip), vehicle: Klucel (hydroxypropylcellulose) (HPC)) is 93 % of control; the T/C under setting [4] is 96 % of control; the T/C under setting [5] is 95 % of control.
In the case of `CC1CC(=O)c2cccc(Cl)c2N1C` (stereo not given), the T/C under setting [4] was 100 % of control, the T/C under setting [5] is 100 % of control and the T/C under setting [6] was 98 % of control.
On to `Cc1ccc(O)c(-c2ccccc2)c1`, for which the T/C is, setting by setting: under setting [1], 100 % of control; under setting [2], 100 % of control; under setting [3], 103 % of control.
Turning to `O=C(/C=C/c1ccc2c(c1)OCO2)c1ccc2ccccc2c1`, the T/C was 103 % of control (endpoint: mean survival time, dose: 100.0 mg/kg/injection, schedule: Q04DX002 (ip), vehicle: gum acacia); 96 % of control (endpoint: mean survival time, dose: 200.0 mg/kg/injection, schedule: Q04DX002 (ip), vehicle: gum acacia); 92 % of control (endpoint: mean survival time, dose: 400.0 mg/kg/injection, schedule: Q04DX002 (ip), vehicle: gum acacia).
Consider `CCCCCCCCCCCCC#N`, for which the T/C under setting [7] was 111 % of control; the T/C under setting [4] is 110 % of control; the T/C under setting [8] was 119 % of control; the T/C under setting [5] was 113 % of control; the T/C under setting [9] is 100 % of control; the T/C under setting [6] was 117 % of control.
Consider `COc1ccccc1/C=C(\C#N)c1cccc2ccccc12`, for which the T/C by setting is: (endpoint: mean survival time, dose: 25.0 mg/kg/injection, schedule: Q04DX002 (ip), vehicle: Klucel (hydroxypropylcellulose) (HPC)) 118 % of control; (endpoint: mean survival time, dose: 50.0 mg/kg/injection, schedule: Q04DX002 (ip), vehicle: Klucel (hydroxypropylcellulose) (HPC)) 93 % of control; under setting [7], 94 % of control; under setting [10], 107 % of control; under setting [8], 89 % of control; under setting [9], 90 % of control.
Take `CC(C)CCCC(C)C1CCC2C3CCC45CC4C(=O)CCC5(C)C3CCC12C` (stereo not given): the T/C (endpoint: mean survival time, dose: 100.0 mg/kg/injection, schedule: Q01DX009 (ip), vehicle: acetone) is 87 % of control and 96 % of control; the T/C (endpoint: mean survival time, dose: 200.0 mg/kg/injection, schedule: Q01DX009 (ip), vehicle: acetone) is 103 % of control; the T/C (endpoint: mean survival time, dose: 400.0 mg/kg/injection, schedule: Q01DX009 (ip), vehicle: acetone) was 89 % of control and 94 % of control.
With `Cc1ccc(N=Nc2ccc(C)cc2NC(=O)c2ccc(Cl)c(Cl)c2)cc1`, the T/C by setting is: under setting [10], 120 % of control; under setting [11], 103 % of control; under setting [12], 97 % of control.
`C[Si](F)(c1cccc2ccccc12)c1cccc2ccccc12`: the T/C reads like this: (endpoint: mean survival time, dose: 100.0 mg/kg/injection, schedule: Q01DX001 (ip), vehicle: saline with Tween-80) 97 % of control; (endpoint: mean survival time, dose: 200.0 mg/kg/injection, schedule: Q01DX001 (ip), vehicle: saline with Tween-80) 103 % of control; (endpoint: mean survival time, dose: 400.0 mg/kg/injection, schedule: Q01DX001 (ip), vehicle: saline with Tween-80) 102 % of control.
On to `CCOc1ccc(NC(=O)N/N=C(\C)CC(C)C)cc1`, for which the T/C under setting [1] is 93 % of control; the T/C under setting [7] was 99 % of control and 102 % of control; the T/C under setting [10] is 95 % of control and 89 % of control; the T/C under setting [2] is 89 % of control; the T/C under setting [8] was 96 % of control and 101 % of control; the T/C under setting [11] was 103 % of control and 110 % of control. Moreover, the T/C under setting [3] was 91 % of control; the T/C under setting [9] is 95 % of control and 102 % of control; the T/C under setting [12] is 104 % of control and 92 % of control.
For `C=CCc1c(F)c(F)c(F)c(F)c1F`, the T/C runs as follows: under setting [13], 97 % of control; under setting [14], 95 % of control; under setting [15], 98 % of control.
On to `C(=C/c1nc2ccccc2o1)/c1ccc2c(c1)OCO2`, for which the T/C reads like this: under setting [10], 97 % of control; under setting [11], 97 % of control; under setting [12], 97 % of control.
`O=Cc1cc2c(cc1[N+](=O)[O-])OCO2`: the T/C was 94 % of control under setting [4]; 101 % of control under setting [13]; 96 % of control under setting [5]; 97 % of control under setting [14]; 92 % of control under setting [6]; 95 % of control under setting [15].
